Assay results as given in patent publication US6743795B1, “3-nitropyridine derivaives and the pharmaceutical compositions containing said derivatives” (Dong Wha Pharm. Ind. Co. Ltd., priority 1999, dated 2004).

Key:
HBV polymerase = target: T1, HBV polymerase (Hepatitis B virus genotype A2 subtype adw2, UniProt P03159); assay: In vitro reverse transcription activity of HBV polymerase (ELISA-type, DIG/biotin nucleotides); format: biochemical; settings: for inhibition at 0.01 µg/mL / inhibition at 0.1 µg/mL / inhibition at 1 µg/mL: read-out: Inhibition activity on HBV-RT (%)
T1 construct: made in house; host or cells: E. coli
Method: <Experiment 1> Inhibitory Effect on the In Vitro Activities of HBV Polymerase in Reverse Transcription
The following in vitro experiment was performed to determine the effect of the compounds of formula 1 on the activity of HBV polymerase during reverse transcription.
The present inventors submitted application for a patent concerning HBV polymerase genetically expressed in and separated from E.coli, the process of its preparation, and the method to measure the enzyme activities (KR 94-3918, KR 96-33998). In the present experiments HBV polymerase was used which had been expressed in E. coli as stated above.
The method used in the present invention to measure in vitro reverse transcribing activities of HBV polymerase is as follows. Basic principles are the same as for ELISA. Nucleotides with biotin or digoxigenin group attached are included as substrates and anti-DIG antibodies attached to peroxidase enzyme recognize the polymerized substrates.
To the wells coated with streptavidin, 20 μl of HBV polymerase, 20 μl of reaction mixture (10 μM each of DIG-UTP and Biotin-UTP, 46 mM Tris-HCl, 266 mM KCl, 27.5 mM MgCl2, 9.2 mM DTT substrate/primer nybrid), and 20 μl of test compound (added to 1, 0.1, and 0.01 μg/ml) were added and allowed to react at 22° C. for 15 hrs. During this reaction, HBV polymerase catalyzes DNA synthesis and digoxigenin and biotin attached to nucleotides form bonds with streptavidin coated on the bottom of wells. When the reaction was done, each well was washed with 250 μl of cleaning buffer (pH 7.0) for 30 seconds, which was repeated five times to remove remaining impurities. 200 μl of anti-DIG-POD antibody was added to each well and allowed to react for 1 hr at 37° C., and the wells were washed with cleaning buffer to remove impurities. 200 μl each of ABTS™, a substrate of peroxidase, was then added and allowed to react at room temperature for 30 min. Absorbance was measured at 405 nm using ELISA reader.
The percentage of reduction in HBV polymerase activities for reverse transcription was calculated using the group without test compound as a control and the results are shown in Table 3.

HBV = assay: Proliferation of HBV in HBV producing cell line HepG 2.2.15 (competitive PCR of culture supernatant); format: cell-based, Hepatitis B virus; settings: HepG 2.2.15, one week; for inhibition at 0.01 µg/mL / inhibition at 0.1 µg/mL / inhibition at 1 µg/mL: Hepatitis B virus, HepG2.2.15, 168 h, read-out: Inhibitory effect on the HBV proliferation: Inhibition activity on HBV-RT (%)
Method: <Experiment 2> Inhibitory Effect on the Proliferation of HBV in HBV Producing Cell Line
The following experiment was performed to determine inhibitory effects of compounds of formula 1 on the proliferation of HBV producing cell line.
To test for antiviral effect, replication and proliferation of HBV were measured in HepG 2.2.15, a human liver cancer cell line.
The cell concentration was adjusted to 1×10^5 cells/ml and 1 ml was added to each well of a 24-well cell culture plate, which was then kept in a culture box for 3-4 days at 37° C. under 5% CO2 until cells grew sufficiently, changing culture medium everyday. When the cells matured sufficiently, the test compounds were added to the final concentrations of 0.01, 0.1, and 1 μg/ml. One week after the addition of test compounds, the culture solution was centrifuged at 5,000 rpm for 10 min. 25 μl of supernatant was transferred to a new tube and 5 μl of lysis solution [0.54N NaOH, 0.06% NP40] was added to each tube. After keeping the tube at 37° C. for 1 hr, 30 μl of neutralizing solution [0.09N HCl 0.1MTris-HCl, pH7.4] was added as a reaction solution for competitive polymerase chain reaction (PCR).
PCR was performed using genetic sequence of HBV core protein as a matrix. PCR reaction was carried out by adding 1 unit of Taq polymerase enzyme to 25 pmol of each primer, 250 μM dNTP, 5 μl of PCR reaction solution [0.54N NaOH, 0. 06% NP40, 0.09N HCl, 0.1M Tris-HCl, pH 7.4].
DNA polymerized by PCR was electrophoresed on Agarose gel and quantitatively analyzed using an image analyzer (Gel Doc 1000, Bio-Rad) in order to evaluate the effect of compounds of the present invention on the reduction of HBV proliferation.
3TC (lamivudine) was used as a positive control at the same concentrations as those of the test compounds. The percentage of reduction in HBV proliferation was calculated using the group without test compound as a control and the results are represented in Table 4.

[1] = target: T2, HIV reverse transcriptase (Human immunodeficiency virus type 1 group M subtype B, UniProt P03366); assay: In vitro HIV reverse transcriptase activity (non-radioactive RT assay kit); format: biochemical
T2 construct: purchased Boehringer Mannheim
Method: <Experiment 3> Inhibitory Effect on the In Vitro HIV Enzyme Activities in Reverse Transcription
The following in vitro experiments were done to determine the effect of compounds of formula 1 on the reduction of HIV enzyme activities in reverse transcription.
Non-radioactive reverse transcriptase assay kit (Boehringer Mannheim) was used in the measurement of in vitro transcriptase activities. 20 μl (40 ng) of HIV transcriptase and 20 μl of reaction mixture containing matrix-primer hybrid poly(A)oligo(dT)15, DIG(digoxigenin)-dUTP, biotin-dUTP, and TTP were added to wells coated with streptavidin. Test compounds were also added at the final concentrations of 0.1 and 1 μg/ml and allowed to react at 37° C. for 1 hr. At this time, DNA is formed from RNA by the action of HIV reverse transcriptase, forming bonds with streptavidin coated on the bottom of wells because of digoxigenin and biotin moieties attached to nucleotides.
When the reaction was completed, each well was washed with 250 μl of cleaning buffer (pH7.0) for 30sec. five times to remove remaining impurities. 200 μl of anti-DIG-POD […] was added to each well, allowed to react at 37° C. for 1 hr and washed as above to remove impurities. 200 μl of ABTS™, a substrate for peroxidase, was added to each well and allowed to react at room temperature for 30 min. Absorbance at 405 nm was then read for each solution using ELISA reader and used for quantitative determination of inhibitory effect on the HIV transcriptase activities. The percentage of reduction in the activities of HIV reverse transcriptase was calculated using the group without test compound as control and the results are represented in Table 5.

T1 sequence (P03159 whole entry): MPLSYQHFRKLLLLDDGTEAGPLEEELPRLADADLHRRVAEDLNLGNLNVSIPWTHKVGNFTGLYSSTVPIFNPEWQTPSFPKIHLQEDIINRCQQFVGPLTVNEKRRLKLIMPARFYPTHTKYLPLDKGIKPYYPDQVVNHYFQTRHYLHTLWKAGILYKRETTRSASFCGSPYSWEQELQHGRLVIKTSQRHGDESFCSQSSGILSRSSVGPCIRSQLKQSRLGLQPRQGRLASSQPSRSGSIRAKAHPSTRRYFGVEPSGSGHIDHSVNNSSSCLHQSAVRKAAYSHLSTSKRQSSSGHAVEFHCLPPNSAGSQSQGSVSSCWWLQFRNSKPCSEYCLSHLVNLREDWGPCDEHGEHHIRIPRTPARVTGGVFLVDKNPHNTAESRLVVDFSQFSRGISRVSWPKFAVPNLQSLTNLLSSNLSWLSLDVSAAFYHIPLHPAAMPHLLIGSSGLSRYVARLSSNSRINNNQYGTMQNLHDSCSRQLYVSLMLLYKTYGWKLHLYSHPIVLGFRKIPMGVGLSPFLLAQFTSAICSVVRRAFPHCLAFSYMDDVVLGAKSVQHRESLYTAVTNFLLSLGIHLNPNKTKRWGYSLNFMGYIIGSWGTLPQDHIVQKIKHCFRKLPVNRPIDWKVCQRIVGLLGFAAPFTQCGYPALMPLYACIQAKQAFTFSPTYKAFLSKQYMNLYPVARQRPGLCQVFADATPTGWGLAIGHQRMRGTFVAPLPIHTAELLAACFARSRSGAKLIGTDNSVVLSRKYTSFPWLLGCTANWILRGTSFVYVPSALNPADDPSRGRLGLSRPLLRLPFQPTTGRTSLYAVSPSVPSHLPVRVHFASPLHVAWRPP

CC(C)CNc1ccc([N+](=O)[O-])c(Nc2ccc3[nH]ncc3c2)n1 [Example 7, 2-(1H-5-indazolylamino)-6-isobuthyl amino-3-nitropyridine]
Inhibition activity on HBV-RT (%) (HBV polymerase; 0.01 μg/ml test compound): 47%
Inhibition activity on HBV-RT (%) (HBV polymerase; 0.1 μg/ml test compound): 80%
Inhibition activity on HBV-RT (%) (HBV polymerase; 1 μg/ml test compound): 95%
Inhibitory effect on the HBV proliferation: Inhibition activity on HBV-RT (%) (HBV; 0.01 μg/ml): 30%
Inhibitory effect on the HBV proliferation: Inhibition activity on HBV-RT (%) (HBV; 0.1 μg/ml): 75%
Inhibitory effect on the HBV proliferation: Inhibition activity on HBV-RT (%) (HBV; 1 μg/ml): 93%
Inhibitory effect on the activities of HIV reverse transcriptase: Inhibition activity on HIV-RT (%) ([1]; 0.1 μg/ml test compound): 45%
Inhibitory effect on the activities of HIV reverse transcriptase: Inhibition activity on HIV-RT (%) ([1]; 1 μg/ml test compound): 72%

COc1ccc([N+](=O)[O-])c(Nc2ccc3[nH]ncc3c2)n1 [Example 1, 2-(1H-5-indazolylamino)-6-methoxy-3-nitropyridine]
inhibition at 0.01 µg/mL (HBV polymerase; 0.01 μg/ml test compound): 30%
inhibition at 0.1 µg/mL (HBV polymerase; 0.1 μg/ml test compound): 54%
inhibition at 1 µg/mL (HBV polymerase; 1 μg/ml test compound): 85%
inhibition at 0.01 µg/mL (HBV; 0.01 μg/ml): 20%
inhibition at 0.1 µg/mL (HBV; 0.1 μg/ml): 45%
inhibition at 1 µg/mL (HBV; 1 μg/ml): 82%
Inhibitory effect on the activities of HIV reverse transcriptase: Inhibition activity on HIV-RT (%) ([1]; 0.1 μg/ml test compound): 35%
Inhibitory effect on the activities of HIV reverse transcriptase: Inhibition activity on HIV-RT (%) ([1]; 1 μg/ml test compound): 75%

O=[N+]([O-])c1ccc(NCc2ccncc2)nc1Nc1ccc2[nH]ncc2c1 [Example 21, 2-(1H-5-indazolylamino)-3-nitro-6-(4-pyridyl)methylaminopyridine]
inhibition at 0.01 µg/mL (HBV polymerase; 0.01 μg/ml test compound): 45%
inhibition at 0.1 µg/mL (HBV polymerase; 0.1 μg/ml test compound): 65%
inhibition at 1 µg/mL (HBV polymerase; 1 μg/ml test compound): 94%
inhibition at 0.01 µg/mL (HBV; 0.01 μg/ml): 33%
inhibition at 0.1 µg/mL (HBV; 0.1 μg/ml): 50%
inhibition at 1 µg/mL (HBV; 1 μg/ml): 90%
Inhibitory effect on the activities of HIV reverse transcriptase: Inhibition activity on HIV-RT (%) ([1]; 0.1 μg/ml test compound): 39%
Inhibitory effect on the activities of HIV reverse transcriptase: Inhibition activity on HIV-RT (%) ([1]; 1 μg/ml test compound): 72%

O=[N+]([O-])c1ccc(N2CCNCC2)nc1Nc1ccc2[nH]ncc2c1 [Example 23, 2-(1H-5-indazolylamino)-3-nitro-6-(1-piperazinyl)pyridine]
inhibition at 0.01 µg/mL (HBV polymerase; 0.01 μg/ml test compound): 51%
inhibition at 0.1 µg/mL (HBV polymerase; 0.1 μg/ml test compound): 66%
inhibition at 1 µg/mL (HBV polymerase; 1 μg/ml test compound): 96%
inhibition at 0.01 µg/mL (HBV; 0.01 μg/ml): 35%
inhibition at 0.1 µg/mL (HBV; 0.1 μg/ml): 55%
inhibition at 1 µg/mL (HBV; 1 μg/ml): 92%
melting point: 270 °C (dec.)

O=[N+]([O-])c1ccc(NN2CCOCC2)nc1Nc1ccc2[nH]ncc2c1 [Example 30, 2-(1H-5-indazolylamino)-6-(4-morpholinyl)amino-3-nitropyridine]
inhibition at 0.01 µg/mL (HBV polymerase; 0.01 μg/ml test compound): 32%
inhibition at 0.1 µg/mL (HBV polymerase; 0.1 μg/ml test compound): 49%
inhibition at 1 µg/mL (HBV polymerase; 1 μg/ml test compound): 71%
melting point: > 270 °C

CNc1ccc([N+](=O)[O-])c(Nc2ccc3cn[nH]c3c2)n1 [Example 4, 2-(1H-6-indazolylamino)-6-methyl amino-3-nitropyridine]
Inhibition activity on HBV-RT (%) (HBV polymerase; 0.01 μg/ml test compound): 26%
Inhibition activity on HBV-RT (%) (HBV polymerase; 0.1 μg/ml test compound): 51%
Inhibition activity on HBV-RT (%) (HBV polymerase; 1 μg/ml test compound): 60%
Inhibitory effect on the HBV proliferation: Inhibition activity on HBV-RT (%) (HBV; 0.1 μg/ml): 40%
Inhibitory effect on the HBV proliferation: Inhibition activity on HBV-RT (%) (HBV; 1 μg/ml): 58%
Inhibitory effect on the activities of HIV reverse transcriptase: Inhibition activity on HIV-RT (%) ([1]; 0.1 μg/ml test compound): 51%
Inhibitory effect on the activities of HIV reverse transcriptase: Inhibition activity on HIV-RT (%) ([1]; 1 μg/ml test compound): 70%

O=[N+]([O-])c1ccc(NCc2cccnc2)nc1Nc1ccc2cn[nH]c2c1 [Example 20, 2-(1H-6-indazolylamino)-3-nitro-6-(3-pyridyl)methylaminopyridine]
inhibition at 0.01 µg/mL (HBV polymerase; 0.01 μg/ml test compound): 21%
inhibition at 0.1 µg/mL (HBV polymerase; 0.1 μg/ml test compound): 40%
inhibition at 1 µg/mL (HBV polymerase; 1 μg/ml test compound): 66%
Inhibitory effect on the activities of HIV reverse transcriptase: Inhibition activity on HIV-RT (%) ([1]; 0.1 μg/ml test compound): 53%
Inhibitory effect on the activities of HIV reverse transcriptase: Inhibition activity on HIV-RT (%) ([1]; 1 μg/ml test compound): 84%
melting point: > 270 °C

CN1CCN(c2ccc([N+](=O)[O-])c(Nc3ccc4cn[nH]c4c3)n2)CC1 (hydrate or solvate) [Example 26, 2-(1H-6-indazolylamino)-6-(4-methyl-1-piperazinyl)-3-nitropyridine]
melting point: 253 °C (dec.)

CC(C)Nc1ccc([N+](=O)[O-])c(Nc2ccc3[nH]ncc3c2)n1 [Example 5, 2-(1H-5-indazolylamino)-6-isopropyl amino-3-nitropyridine]
Inhibition activity on HBV-RT (%) (HBV polymerase; 0.01 μg/ml test compound): 53%
Inhibition activity on HBV-RT (%) (HBV polymerase; 0.1 μg/ml test compound): 87%
Inhibition activity on HBV-RT (%) (HBV polymerase; 1 μg/ml test compound): 96%
Inhibitory effect on the HBV proliferation: Inhibition activity on HBV-RT (%) (HBV; 0.01 μg/ml): 41%
Inhibitory effect on the HBV proliferation: Inhibition activity on HBV-RT (%) (HBV; 0.1 μg/ml): 81%
Inhibitory effect on the HBV proliferation: Inhibition activity on HBV-RT (%) (HBV; 1 μg/ml): 94%
Inhibitory effect on the activities of HIV reverse transcriptase: Inhibition activity on HIV-RT (%) ([1]; 0.1 μg/ml test compound): 20%
Inhibitory effect on the activities of HIV reverse transcriptase: Inhibition activity on HIV-RT (%) ([1]; 1 μg/ml test compound): 55%

CN1CCN(Nc2ccc([N+](=O)[O-])c(Nc3ccc4cn[nH]c4c3)n2)CC1 [Example 18, 2-(1H-6-indazolylamino)-6-(4-methyl-1-piperazinyl)amino-3-nitropyridine]
inhibition at 0.01 µg/mL (HBV polymerase; 0.01 μg/ml test compound): 25%
inhibition at 0.1 µg/mL (HBV polymerase; 0.1 μg/ml test compound): 43%
inhibition at 1 µg/mL (HBV polymerase; 1 μg/ml test compound): 70%
melting point: 260 °C (dec.)

O=[N+]([O-])c1ccc(N2CCNCC2)nc1Nc1ccc2cn[nH]c2c1 [Example 24, 2-(1H-6-indazolylamino)-3-nitro-6-(1-piperazinyl)pyridine]
inhibition at 0.01 µg/mL (HBV polymerase; 0.01 μg/ml test compound): 20%
inhibition at 0.1 µg/mL (HBV polymerase; 0.1 μg/ml test compound): 43%
inhibition at 1 µg/mL (HBV polymerase; 1 μg/ml test compound): 62%
melting point: 268 °C (dec.)

O=[N+]([O-])c1ccc(NCc2ccccn2)nc1Nc1ccc2cn[nH]c2c1 [Example 22, 2-(1H-6-indazolylamino)-3-nitro-6-(2-pyridyl)methylaminopyridine]
inhibition at 0.01 µg/mL (HBV polymerase; 0.01 μg/ml test compound): 49%
inhibition at 0.1 µg/mL (HBV polymerase; 0.1 μg/ml test compound): 60%
inhibition at 1 µg/mL (HBV polymerase; 1 μg/ml test compound): 81%
melting point: 256 °C (dec.)
